Experimental data reported in US9725442B2, “Heterocyclic derivative having PGD2 receptor antagonist activity” (Shionogi & Co., Ltd., priority 2011, dated 2017).
Like-named read-outs stand apart in the source and are kept apart here.

Key:
Human DP1 receptor = Human DP1 receptor (Homo sapiens (Human), UniProt Q13258); assay: Human DP1 inhibitory activity in DP1-expressing cell (PGD2-induced cAMP); assay type: cell-based
Experimental: Compounds were categorized as AA (cAMP is less than 100 nM) and A (cAMP is more than 100 nM and less than 5000 nM) as shown in Table 99 and 100.

CRTH2 = CRTH2 (Homo sapiens (Human), UniProt Q9Y5Y4); assay: CRTH2 receptor binding inhibitory activity ([3H]-PGD2 displacement, membranes of CRTH2-expressing K562 cell); conditions: [3H]-PGD2 displacement, membrane of CRTH2-expressing K562 cell, read-out: Ki
CRTH2, sequence (Q9Y5Y4 whole entry): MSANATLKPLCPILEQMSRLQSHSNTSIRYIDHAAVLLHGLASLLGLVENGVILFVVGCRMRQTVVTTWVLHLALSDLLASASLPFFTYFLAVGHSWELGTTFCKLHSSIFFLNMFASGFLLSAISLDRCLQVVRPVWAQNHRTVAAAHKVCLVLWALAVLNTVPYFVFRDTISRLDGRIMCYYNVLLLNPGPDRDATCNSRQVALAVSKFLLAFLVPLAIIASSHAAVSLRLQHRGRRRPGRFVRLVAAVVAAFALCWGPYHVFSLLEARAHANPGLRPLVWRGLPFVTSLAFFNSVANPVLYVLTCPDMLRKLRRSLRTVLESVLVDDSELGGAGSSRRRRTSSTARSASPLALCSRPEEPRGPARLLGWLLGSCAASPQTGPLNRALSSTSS
Procedure, shortened: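 Incubation ran 60 min at room temperature using 20 μg/well membrane from CRTH2-expressing K562 cells in pH 7.4 Tris/HCl (50 mM) with 10 mM MgCl2.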

[1] = category of cAMP IC50, human DP1 receptor expressing Jurkut cell
[2] = CRTH2 receptor binding, categorized AAAA/AAA

Human DP1 receptor, sequence (Q13258 whole entry): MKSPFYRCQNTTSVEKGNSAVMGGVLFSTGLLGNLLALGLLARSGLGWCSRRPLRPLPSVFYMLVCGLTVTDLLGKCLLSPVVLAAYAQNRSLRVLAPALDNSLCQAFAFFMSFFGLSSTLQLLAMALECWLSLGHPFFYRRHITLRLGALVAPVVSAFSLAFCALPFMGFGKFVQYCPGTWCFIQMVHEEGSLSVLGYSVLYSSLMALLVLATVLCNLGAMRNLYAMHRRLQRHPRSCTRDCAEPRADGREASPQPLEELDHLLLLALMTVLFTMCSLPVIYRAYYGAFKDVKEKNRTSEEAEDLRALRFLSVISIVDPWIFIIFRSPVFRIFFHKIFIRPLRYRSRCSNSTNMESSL

Structure (SMILES) | IC50 (Human DP1 receptor; [1]) | Ki (CRTH2; [2]) | Ki (CRTH2) | IC50 (Human DP1 receptor; IC50 of PGD2 (60 nM)-induced cAMP increase, human DP1 receptor expressing Jurkut cell)
CC(C)Oc1ccc(S(=O)(=O)N2C[C@H](n3nc(CC(=O)O)c4ccc(F)cc43)C[C@@H]2c2ncc[nH]2)cc1 [Compound I-363] | 100 to 5000 nM | 100 to 5000 nM | 170 nM | 
CC(C)Oc1ccc(S(=O)(=O)N2C[C@H](n3nc(CC(=O)O)c4ccc(F)cc43)C[C@@H]2Cc2ccccc2)cc1 [Compound I-348] | < 100 nM | < 100 nM |  | 
CC(C)Oc1ccc(S(=O)(=O)N2CC[C@@H](n3nc(CC(=O)O)c4ccc(F)cc43)[C@@H]2C)cc1 [Compound I-210] | 100 to 5000 nM | < 100 nM | 10 nM | 
CC(C)Oc1ccc(S(=O)(=O)N2C[C@H](C)[C@@H](n3nc(CC(=O)O)c4ccccc43)C2)cc1 [Compound I-115] | < 100 nM | < 100 nM |  | 
CCOc1ccc(S(=O)(=O)N2C[C@@H](C)[C@@H](n3cc(CC(=O)O)c4ccc(C)cc43)C2)cn1 [Compound I-272] | < 100 nM | < 100 nM |  | 
CC(C)Oc1ccc(S(=O)(=O)N2C[C@@H](C)[C@@H](n3nc(CC(=O)O)c4cc(C#N)c(F)cc43)C2)cc1 [Compound I-167] | < 100 nM | 100 to 5000 nM |  | 
C[C@@H]1CN(S(=O)(=O)c2ccc(OC(F)F)cc2)C[C@@H]1n1nc(CC(=O)O)c2ccc(F)cc21 [Compound I-107] | < 100 nM | < 100 nM |  | 
CCSCCOc1ccc(S(=O)(=O)N2C[C@@H](C)[C@@H](n3nc(CC(=O)O)c4ccccc43)C2)cc1 [Compound I-308] | < 100 nM | < 100 nM |  | 
CCOc1ccc(S(=O)(=O)N2C[C@H](n3nc(CC(=O)O)c4ccccc43)C[C@@H]2C(N)=O)cc1 [Compound I-319] | 100 to 5000 nM | 100 to 5000 nM |  | 
CC(C)Oc1ccc(S(=O)(=O)N2CC[C@H](n3nc(CC(=O)O)c4ccc(F)cc43)C[C@H]2C)cc1 [Compound I-78] | 100 to 5000 nM | 100 to 5000 nM |  | 
CC(C)Oc1ccc(S(=O)(=O)N2C[C@H](n3nc(CC(=O)O)c4ccc(F)cc43)[C@@](C)(O)C2)cc1 [Compound I-84] | 100 to 5000 nM | < 100 nM |  | 
CCOc1ccc(S(=O)(=O)N2C[C@@H](C)[C@@H](n3nc(CC(=O)O)c4ccc(F)cc43)C2)nc1 [Compound I-235] | 100 to 5000 nM | < 100 nM |  | 
CCOc1ccc(S(=O)(=O)N2C[C@@H](C)[C@@H](n3nc(CC(=O)O)c4ccc(C#N)cc43)C2)cc1 [Compound I-172] | < 100 nM | < 100 nM |  | 
CCOCCOc1ccc(S(=O)(=O)N2C[C@@H](C)[C@@H](n3nc(CC(=O)O)c4ccccc43)C2)cc1 [Compound I-191] | 100 to 5000 nM | < 100 nM |  | 
CC(C)Oc1ccc(S(=O)(=O)N2C[C@@H](CO)[C@@H](n3nc(CC(=O)O)c4ccc(F)cc43)C2)cc1 [Compound I-64] | 100 to 5000 nM | < 100 nM |  | 
CC(C)Oc1ccc(S(=O)(=O)N2CC(=O)C(n3nc(CC(=O)O)c4ccc(F)cc43)C2)cc1 (centres unmarked) [Compound I-27] | 100 to 5000 nM | < 100 nM |  | 
CCS(=O)(=O)CCOc1ccc(S(=O)(=O)N2C[C@@H](C)[C@@H](n3nc(CC(=O)O)c4ccccc43)C2)cc1 [Compound I-305] | 100 to 5000 nM | 100 to 5000 nM |  | 
COc1ccc(S(=O)(=O)N2C[C@@H](C)[C@@H](n3nc(CC(=O)O)c4ccc(F)cc43)C2)c(F)c1 [Compound I-233] | < 100 nM | < 100 nM |  | 
CSC[C@H]1C[C@@H](n2nc(CC(=O)O)c3ccc(F)cc32)CN1S(=O)(=O)c1ccc(OC(C)C)cc1 [Compound I-354] | < 100 nM | 100 to 5000 nM |  | 
CCOc1ccc(S(=O)(=O)N2C[C@@H](C)[C@@H](n3cc(CC(=O)O)c4ccc(C)cc43)C2)cc1 [Compound I-271] | < 100 nM | < 100 nM |  | 
CC(C)Oc1ccc(S(=O)(=O)N2C[C@H](n3nc(CC(=O)O)c4ccc(F)cc43)C[C@@H]2C(N)=O)cc1 [Compound I-3] | 100 to 5000 nM | 100 to 5000 nM |  | 350 nM
CC(C)Oc1ccc(S(=O)(=O)N2C[C@@H](C)[C@@H](n3nc(CC(=O)O)c4cc(C#N)ccc43)C2)cc1 [Compound I-262] | < 100 nM | 100 to 5000 nM |  | 
C[C@@H]1CN(S(=O)(=O)c2ccc(C3CC3)cc2)C[C@@H]1n1nc(CC(=O)O)c2ccc(F)cc21 [Compound I-113] | < 100 nM | < 100 nM | 17 nM | 
Cc1ccc2c(CC(=O)O)nn([C@H]3CN(S(=O)(=O)c4ccc(OC(C)C)cc4)C[C@H]3C)c2c1 [Compound I-62] | < 100 nM | < 100 nM |  | 
CCOc1ccc(S(=O)(=O)N2C[C@@H](C)[C@H](n3nc(CC(=O)O)c4ccccc43)C2)cc1 [Compound I-197] | 100 to 5000 nM | 100 to 5000 nM |  | 
CCOc1ccc(S(=O)(=O)N2C[C@@H](C)[C@@H](n3nc(C(O)C(=O)O)c4ccccc43)C2)cc1 (single isomer, unassigned) [Compound I-307] | 100 to 5000 nM | 100 to 5000 nM |  | 
